# Assay results taken from patent publication US20220133761A1, “NEUTROPHIL APOPTOSIS INDUCED BY NANOPARTICLES FOR TREATING INFLAMMATORY DISEASES” (WASHINGTON STATE UNIVERSITY, priority 2020, published 2022).
# Assays:
# [1] = Serum stability of nanoparticles in PBS with 20% FBS; assay type: physicochemical; conditions: pH 7.4, incubation for 4 days
# Description: Particle size and polydispersity indexes (PDI) were measured using Malvern Zetasizer Nano90 (Westborough, Mass.). The samples were incubated in PBS at pH 7.4 for 2 h, and the measurements were conducted in a 1.0 mL quartz cuvette using a diode laser of 633 nm at 25° C. and a scattering angle was fixed at 90°. To evaluate their serum stability, nanoparticles were dispersed in 20% FBS PBS solution (pH 7.4) at a final concentration of 1 mg/mL. Nanoparticle sizes were measured at the predefined time points. Transmission electron microscopy (TEM) of nanoparticles was also performed using a FEI Technai G2 20 Twin TEM (Hillsboro, Oreg.).
# [2] = In vitro drug release profile (dialysis, 37 C); assay type: physicochemical
# Description: Release profiles of DOX from NPs were studied using dialysis method at 37° C.(33) Briefly, 3 mg of NPs was dispersed in 3 mL (Ve) PBS at different pH, and then was placed in a dialysis bag (MWCO 3500 Da). The dialysis bag was immersed in 47 mL PBS (pH 7.4, 6.5 or 5.0) in a beaker. The beaker was then placed in a 37° C. water bath and stirred at 110 rpm. The samples were drawn at desired time intervals and the drug concentration was measured using UV-Vis absorption. The experiments were carried out in triplicate at each pH value. The accumulative drug release percent (Er) was calculated based on equation (1).
# where, mdrug represents the amount of DOX in NPs, V0 was the whole volume of release media (V0=50 mL), Ci represents the concentration of DOX in the ith sample.
# [3] = system: differentiated HL-60 cells (neutrophil-like cells); experiment: In vitro cytotoxicity, CCK-8 assay; assay type: cell-based, human; conditions: 24 h, different concentrations of DOX
# Description: Cytotoxic effects of BSA NPs on HL-60 cells were measured by CCK-8 assay. HL-60 cells were plated in 96-well plates (Costar, Corning, N.Y.) at 5,000-10,000 cells/well. After incubation for 24 h, the culture medium was removed and a complete medium with various concentrations of free DOX, BSA and DOX-conjugated BSA NPs was used to incubate cells for 24 h, respectively. 10 μL of the solution cell proliferation reagent (Promega, Madison, Wis.) per well was added. Then, the cell viability was measured by a Synergy Neo fluorescence plate reader (BioTek, Winooski, Vt.) at 490 nm.
# activated neutrophils = experiment: Nanoparticle uptake by blood leukocytes in LPS-induced inflammation mouse model (CLSM, flow cytometry); assay type: in vivo
# Description: To investigate cell uptake specificity of BSA NPs in circulation, blood cells were isolated and studied using confocal laser scanning microscopy (CLSM) and flow cytometry. Briefly, 4 h after LPS challenge (i.p., 20 mg kg^−1), DOX-hyd-BSA NPs were intravenously injected into mice. Healthy mice were used as control. 3 h later, the whole blood was harvested in a heparinized tube from the heart. Neutrophils in blood were isolated by Pluriselect anti-mouse LY-6G S-pluribeads according to the manufacturer's protocol (Pluriselect, Spring Valley, Calif.). The cells were fixed with 2 mL of 4% paraformaldehyde for 30 min and were stained with Alexa Fluor 488-labeled anti-mouse LY-6G antibody. A slide smear of cell solution was prepared by 7620 Cytopro Cytocentrifuge (ELITech, Princeton, N.J.). A drop of Prolong Gold Antifade reagent with DAPI (Invitrogen, Eugene, Oreg.) was added on the cells, and a coverslip was applied on the slide. 4 h later, the cells were observed using a Nikon A1R^+ confocal laser scanning microscope.
# Flow cytometry to quantify neutrophil uptake of nanoparticles was also utilized. Blood leukocytes were isolated to determine the specificity of uptake of NPs in blood. In brief, 3 mL Histopaque 10771 was carefully layered on top of 3 mL Histopaque 11191 in a 15 mL centrifuge tube. […]
# LPS-challenged mice = experiment: Survival study in sepsis mouse model (i.p. LPS 50 mg/kg); assay type: in vivo; conditions: 72 h, 0.2 mg/kg DOX i.v. 4 h after i.p. LPS 50 mg/kg
# Description: Adult CD-1 mice were i.p. injected with LPS (50 mg/kg) in the mouse sepsis model. 4 hours later, the LPS-challenged mice were grouped randomly (10 mice per group) and treated (i.v.) with PBS, free DOX (0.2 mg/kg), and prodrug DOX-hyd-BSA NPs (equal to 0.2 mg/kg of free DOX). The animals were monitored every 6 h in the first 12 h followed by monitoring mice every 12 h in 72 h.
# cerebral I/R mouse model = experiment: Middle cerebral artery occlusion (MCAO) cerebral I/R mouse model; assay type: in vivo
# Description: CD1 mice were used. Mice were anesthetized using 100 mg/kg of ketamine and 5 mg/kg of xylazine. They were positioned in the supine position on a heating pad. A carotid artery (CA) was exposed via the midline neck incision. An external carotid artery (ECA) was separated and occulated with two knots. Next, the internal carotid artery (ICA) was isolated, and the CA and ICA were clipped. A small hole was cut in the ECA above the second knot. A 6-0 medium MCAO suture was then introduced into ICA. Mice were kept for 60 min after occlusion in a heated cage, and the suture was withdrawn for reperfusion. Finally, the skin was closed and the mice were returned to the individual cage.
# The damaged brain tissues were collected 24 h after MCAO and homogenized in PBS with 5% hexadecyltrimethylammonium bromide (HTAB). The homogenate was sonicated, and centrifuged at 13,000 rpm for 10 min. Next, 10 μL supernatant was loaded into each well of a 96-well plate. A solution of o-Dianisidine dihydrochloride with 0.0005% hydrogen peroxide in potassium phosphate buffer was added to the samples. Absorbance was measured at 450 nm. MPO activity is expressed as change in absorbance per minute per gram of tissue.
# The damaged brain tissues of mice were collected 24 h after MCAO surgery and homogenized in PBS buffer. The level of cytokines (TNF-α, IL-1β, IL-6) was quantified using commercial ELISA assay as aforementioned.
# Videos were taken 24 h after MCAO surgery and neurological deficit scores were given by two people. The scores are divided into five grades for neurological scores of mice after cerebral ischemia.
# [4] = 0.2 mg/kg DOX i.v. 1 h after reperfusion, 22 h post-injection, vs free DOX and PBS
substance,measurement,setting,value
DOX-hyd-BSA NPs,"serum stability (aggregation, diameter change)",[1],no aggregation (diameter change) was observed
same,cumulative DOX release,"[2]; pH 5.0, first 10 h",80%
same,cumulative DOX release,"[2]; pH 5, in 30 h",completely released DOX
same,cumulative DOX release,"[2]; pH 6.5, first 10 h",60%
same,cytotoxicity (cell viability),[3],cytotoxicity was similar for both free DOX and DOX-hyd-BSA NPs
same,neutrophil uptake of NPs,"activated neutrophils; 4 h after i.p. LPS 20 mg/kg, blood 3 h after i.v. NPs",neutrophil uptake was observed
same,"uptake by T cells, monocytes and natural killer (NK) cells in blood","activated neutrophils; LPS-challenged mice, flow cytometry",did not take up BSA NPs
same,mouse survival,LPS-challenged mice,70%
same,"cytokines in the brain (TNF-α, IL-1β, IL-6)",cerebral I/R mouse model; [4],significantly reduced
same,neutrophil numbers in the brain (MPO activity),cerebral I/R mouse model; [4],significantly reduced
same,neurological deficits (behavior scores),"cerebral I/R mouse model; 0.2 mg/kg of DOX, 24 h after MCAO",enhanced mouse neurological recovery and improved mouse movements
